Laboratory results published in patent US20030144249A1, “Use of organophosphorous compounds for producing a medicament for treating infections” (priority 2000, published 2003).

Tests used:
[1] = biological target: T1, DOXP reductoisomerase from Helicobacter pylori (Helicobacter pylori, UniProt P56139); assay: DOXP reductoisomerase inhibition (NADPH oxidation at 365 nm); format: biochemical; conditions: recombinant enzyme; 0.3 mM NADPH, 1 mM DOXP, pH 7.5; read-out: IC50 (nM) of DOXP reductoisomerase from Helicobacter pylori
T1 construct: made in house; host or cells: Helicobacter pylori (so in the source)
T1 sequence (P56139 1-368): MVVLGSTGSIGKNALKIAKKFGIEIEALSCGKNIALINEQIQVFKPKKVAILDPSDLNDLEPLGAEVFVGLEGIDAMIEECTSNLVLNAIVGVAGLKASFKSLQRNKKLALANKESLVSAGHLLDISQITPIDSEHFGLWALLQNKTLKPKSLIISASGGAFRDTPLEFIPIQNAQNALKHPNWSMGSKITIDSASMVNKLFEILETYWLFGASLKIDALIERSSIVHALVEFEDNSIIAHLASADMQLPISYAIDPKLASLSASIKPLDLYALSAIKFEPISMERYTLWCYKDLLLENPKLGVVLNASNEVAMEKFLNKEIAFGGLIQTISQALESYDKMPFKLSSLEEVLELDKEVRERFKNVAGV
Protocol: The DOXP reductoisomerase of Helicobacter pylori was expressed as a recombinant protein in Helicobacter pylori. The activity of DOXP reductoisomerase was determined in a batch containing 100 mM tris-HCl (pH=7.5), 1 mM MnCl2, 0.3 mM NADPH and 1 mM DOXP.
The oxidation of NADPH was here measured at 365 nm in a spectrophotometer. The inhibition studies were performed by measuring the activity of DOXP reductoisomerase in the presence of compounds 1 to 8 (see page 5) at various concentrations between 0. 1 and 100 μmol l^−1.

Plasmodium falciparum = assay: Antimalarial activity, in vitro culture, [3H]-hypoxanthine incorporation; format: cell-based; conditions: 72 h, asynchronous culture, 48 h + 24 h with [3H]-hypoxanthine, read-out: IC50 (nM) of malaria culture (Plasmodium falciparum)
Protocol: The antimalarial activity of substances 1 to 8 (see page 5) was determined using in vitro cultures of the causative organism of malaria, Plasmodium falciparum. 200 μl of an asynchronous Plasmodium falciparum culture with a 0.4% blood parasite content and a heamatocrit of 2% were loaded into each of the wells of a 96 well microtitre plate. A serial dilution series of the compounds was then prepared in steps of three between concentrations of 100 and 0.14 μmol l^−1. The plates were incubated at 37° C., 3% CO2 and 5% O2 over a period of 48 hours. 30 μl of medium supplemented with 27 μCi ml^−1 of [^3H]-hypoxanthine were then added to each well. After 24 hours' incubation, the parasites were harvested by filtration through glass fibre filters and the incorporated radioactivity was measured. Inhibition of parasite growth was measured as the percentage inhibition of tritium incorporation. Inhibition of parasite growth was expressed as the percentage inhibition of tritium incorporation relative to a comparison without the substance. The median inhibitory concentration (IC50) of the substance was determined by extrapolating the values.

Echinochloa = assay: Herbicidal activity, water, pre-emergence; format: in vivo; conditions: Water
Protocol: (§1) Herbicidal activity is determined using standard methods.
(§2) Substances 1 to 8 listed on page 5 are again investigated.

Lepidium = assay: Herbicidal activity, water, pre-emergence; format: in vivo; conditions: Water
Protocol: as §1, §2

Rice = assay: Herbicidal activity, water, pre-emergence; format: in vivo; conditions: Oryza sativa, Water
Protocol: as §1, §2

Solanum = assay: Herbicidal activity, water, pre-emergence; format: in vivo; conditions: Water
Protocol: as §1, §2

Abutilon theophrasti [2] = assay: Herbicidal activity, soil, pre-emergence; format: in vivo; conditions: Soil, pre-emergence
Protocol: as §1, §2

Alopecurus myosuroides [3] = assay: Herbicidal activity, soil, pre-emergence; format: in vivo; conditions: Soil, pre-emergence
Protocol: as §1, §2

Amaranthus retroflexus [4] = assay: Herbicidal activity, soil, pre-emergence; format: in vivo; conditions: Soil, pre-emergence
Protocol: as §1, §2

Avena fatua [5] = assay: Herbicidal activity, soil, pre-emergence; format: in vivo; conditions: Soil, pre-emergence
Protocol: as §1, §2

Beta vulgaris [6] = assay: Herbicidal activity, soil, pre-emergence; format: in vivo; conditions: Soil, pre-emergence
Protocol: as §1, §2

Cyperus esculentus [7] = assay: Herbicidal activity, soil, pre-emergence; format: in vivo; conditions: Soil, pre-emergence
Protocol: as §1, §2

Galium aperine [8] = assay: Herbicidal activity, soil, pre-emergence; format: in vivo; conditions: Soil, pre-emergence
Protocol: as §1, §2

Setaria viridis [9] = assay: Herbicidal activity, soil, pre-emergence; format: in vivo; conditions: Soil, pre-emergence
Protocol: as §1, §2

Sinapis arvensis [10] = assay: Herbicidal activity, soil, pre-emergence; format: in vivo; conditions: Mutarda arvensis, Soil, pre-emergence
Protocol: as §1, §2

Xanthium strumarium [11] = assay: Herbicidal activity, soil, pre-emergence; format: in vivo; conditions: Soil, pre-emergence
Protocol: as §1, §2

Zea mays [12] = assay: Herbicidal activity, soil, pre-emergence; format: in vivo; conditions: Soil, pre-emergence
Protocol: as §1, §2

Abutilon theophrasti [13] = assay: Herbicidal activity, soil, post-emergence; format: in vivo; conditions: Soil, post-emergence
Protocol: as §1, §2

Alopecurus myosuroides [14] = assay: Herbicidal activity, soil, post-emergence; format: in vivo; conditions: Soil, post-emergence
Protocol: as §1, §2

Amaranthus retroflexus [15] = assay: Herbicidal activity, soil, post-emergence; format: in vivo; conditions: Soil, post-emergence
Protocol: as §1, §2

Avena fatua [16] = assay: Herbicidal activity, soil, post-emergence; format: in vivo; conditions: Soil, post-emergence
Protocol: as §1, §2

Beta vulgaris [17] = assay: Herbicidal activity, soil, post-emergence; format: in vivo; conditions: Soil, post-emergence
Protocol: as §1, §2

Cyperus esculentus [18] = assay: Herbicidal activity, soil, post-emergence; format: in vivo; conditions: Soil, post-emergence
Protocol: as §1, §2

Galium aperine [19] = assay: Herbicidal activity, soil, post-emergence; format: in vivo; conditions: Soil, post-emergence
Protocol: as §1, §2

Setaria viridis [20] = assay: Herbicidal activity, soil, post-emergence; format: in vivo; conditions: Soil, post-emergence
Protocol: as §1, §2

Sinapis arvensis [21] = assay: Herbicidal activity, soil, post-emergence; format: in vivo; conditions: Mutarda arvensis, Soil, post-emergence
Protocol: as §1, §2

Xanthium strumarium [22] = assay: Herbicidal activity, soil, post-emergence; format: in vivo; conditions: Soil, post-emergence
Protocol: as §1, §2

Zea mays [23] = assay: Herbicidal activity, soil, post-emergence; format: in vivo; conditions: Soil, post-emergence
Protocol: as §1, §2

[24] = 2000 gram/hectare, read-out: Herbicidal activity, Abutilon theophrasti
[25] = 2000 gram/hectare, read-out: Herbicidal activity, Alopecurus myosuroides
[26] = 2000 gram/hectare, read-out: Herbicidal activity, Amaranthus retroflexus
[27] = 2000 gram/hectare, read-out: Herbicidal activity, Avena fatua
[28] = 2000 gram/hectare, read-out: Herbicidal activity, Beta vulgaris
[29] = 2000 gram/hectare, read-out: Herbicidal activity, Cyperus esculentus
[30] = 2000 gram/hectare, read-out: Herbicidal activity, Galium aperine
[31] = 2000 gram/hectare, read-out: Herbicidal activity, Setaria viridis
[32] = 2000 gram/hectare, read-out: Herbicidal activity, Sinapis arvensis
[33] = 2000 gram/hectare, read-out: Herbicidal activity, Xanthium strumarium
[34] = 2000 gram/hectare, read-out: Herbicidal activity, Zea mays

Compound: CP(C)(=O)CNCN(O)C(=O)c1ccccc1 [Compound 2, N-(N-Benzoyl-N-hydroxyaminomethyl)aminomethyldimethylphosphine oxide]
- IC50 [1]: 60 nM
- IC50 (Plasmodium falciparum): 420 nM
- pest or weed control at 1000 g/ha (Echinochloa; 1000 gram/hectare): 0%
- pest or weed control at 1000 g/ha (Lepidium; 1000 gram/hectare): 30%
- plant injury at 1000 g/ha (Rice; 1000 gram/hectare): 30%
- pest or weed control at 1000 g/ha (Solanum; 1000 gram/hectare): 0%
- pest or weed control at 500 g/ha (Abutilon theophrasti [2]; 500 gram/hectare): 0%
- pest or weed control at 500 g/ha (Alopecurus myosuroides [3]; 500 gram/hectare): 0%
- pest or weed control at 500 g/ha (Amaranthus retroflexus [4]; 500 gram/hectare): 0%
- pest or weed control at 500 g/ha (Avena fatua [5]; 500 gram/hectare): 0%
- plant injury at 500 g/ha (Beta vulgaris [6]; 500 gram/hectare): 50%
- pest or weed control at 500 g/ha (Cyperus esculentus [7]; 500 gram/hectare): 0%
- pest or weed control at 500 g/ha (Galium aperine [8]; 500 gram/hectare): 0%
- pest or weed control at 500 g/ha (Setaria viridis [9]; 500 gram/hectare): 0%
- pest or weed control at 500 g/ha (Sinapis arvensis [10]; 500 gram/hectare): 60%
- pest or weed control at 500 g/ha (Xanthium strumarium [11]; 500 gram/hectare): 0%
- plant injury at 500 g/ha (Zea mays [12]; 500 gram/hectare): 0%
- pest or weed control at 500 g/ha (Abutilon theophrasti [13]; 500 gram/hectare): 50%
- pest or weed control at 500 g/ha (Alopecurus myosuroides [14]; 500 gram/hectare): 60%
- pest or weed control at 500 g/ha (Amaranthus retroflexus [15]; 500 gram/hectare): 0%
- pest or weed control at 500 g/ha (Avena fatua [16]; 500 gram/hectare): 70%
- plant injury at 500 g/ha (Beta vulgaris [17]; 500 gram/hectare): 50%
- pest or weed control at 500 g/ha (Cyperus esculentus [18]; 500 gram/hectare): 0%
- pest or weed control at 500 g/ha (Galium aperine [19]; 500 gram/hectare): 60%
- pest or weed control at 500 g/ha (Setaria viridis [20]; 500 gram/hectare): 90%
- pest or weed control at 500 g/ha (Sinapis arvensis [21]; 500 gram/hectare): 80%
- pest or weed control at 500 g/ha (Xanthium strumarium [22]; 500 gram/hectare): 50%
- plant injury at 500 g/ha (Zea mays [23]; 500 gram/hectare): 70%

Compound: CN(CC(=O)P(C)(C)=O)CN(O)C(=O)C(F)(F)F [Compound 7, 2-(N-(N-Trifluoracetyl-N-hydroxyaminomethyl)-N-methyl)amino-1-oxoethyldimethylphosphine oxide]
- IC50 [1]: 300 nM
- IC50 (Plasmodium falciparum): 1100 nM
- pest or weed control at 4000 g/ha (Echinochloa; 4000 gram/hectare, read-out: Herbicidal activity, Echinochloa): 40%
- pest or weed control at 4000 g/ha (Lepidium; 4000 gram/hectare, read-out: Herbicidal activity, Lepidium): 40%
- plant injury at 4000 g/ha (Rice; 4000 gram/hectare, read-out: Herbicidal activity, Rice): 30%
- pest or weed control at 4000 g/ha (Solanum; 4000 gram/hectare, read-out: Herbicidal activity, Solanum): 30%
- pest or weed control at 2000 g/ha (Abutilon theophrasti [2]; [24]): 0%
- pest or weed control at 2000 g/ha (Alopecurus myosuroides [3]; [25]): 30%
- pest or weed control at 2000 g/ha (Amaranthus retroflexus [4]; [26]): 20%
- pest or weed control at 2000 g/ha (Avena fatua [5]; [27]): 30%
- plant injury at 2000 g/ha (Beta vulgaris [6]; [28]): 70%
- pest or weed control at 2000 g/ha (Cyperus esculentus [7]; [29]): 0%
- pest or weed control at 2000 g/ha (Galium aperine [8]; [30]): 0%
- pest or weed control at 2000 g/ha (Setaria viridis [9]; [31]): 0%
- pest or weed control at 2000 g/ha (Sinapis arvensis [10]; [32]): 30%
- pest or weed control at 2000 g/ha (Xanthium strumarium [11]; [33]): 0%
- plant injury at 2000 g/ha (Zea mays [12]; [34]): 30%
- pest or weed control at 2000 g/ha (Abutilon theophrasti [13]; [24]): 50%
- pest or weed control at 2000 g/ha (Alopecurus myosuroides [14]; [25]): 80%
- pest or weed control at 2000 g/ha (Amaranthus retroflexus [15]; [26]): 50%
- pest or weed control at 2000 g/ha (Avena fatua [16]; [27]): 80%
- plant injury at 2000 g/ha (Beta vulgaris [17]; [28]): 50%
- pest or weed control at 2000 g/ha (Cyperus esculentus [18]; [29]): 0%
- pest or weed control at 2000 g/ha (Galium aperine [19]; [30]): 70%
- pest or weed control at 2000 g/ha (Setaria viridis [20]; [31]): 90%
- pest or weed control at 2000 g/ha (Sinapis arvensis [21]; [32]): 70%
- pest or weed control at 2000 g/ha (Xanthium strumarium [22]; [33]): 90%
- plant injury at 2000 g/ha (Zea mays [23]; [34]): 70%
